Reference: ChEMBL document CHEMBL1201862, “PubChem BioAssay data set” (2004)
Activity calls are given as the source filed them. Non-standard residues stand in square brackets, D forms with d. Residues, ends and D or L forms follow the SMILES beside them. ξ: configuration not given here. *: point of attachment. X18 = COC1=CC(=O)N(C(=O)C(O*)C(C)C)C1Cc1ccccc1; ξNMe2Val = CC(C)C(C(=O)*)N(C)C; NMeV = CN[CH](C(=O)O)C(C)C

Tests used:
[1] = molecular target: Glucose-6-phosphate 1-dehydrogenase (Homo sapiens, UniProt P11413); experiment: inhibition of Homo sapiens G6PD, dose series – biochemical, fluorescence, selectivity assay for P. falciparum G6PD inhibitor project, dose response (AID 504792); format: functional
Glucose-6-phosphate 1-dehydrogenase, sequence (P11413 whole entry): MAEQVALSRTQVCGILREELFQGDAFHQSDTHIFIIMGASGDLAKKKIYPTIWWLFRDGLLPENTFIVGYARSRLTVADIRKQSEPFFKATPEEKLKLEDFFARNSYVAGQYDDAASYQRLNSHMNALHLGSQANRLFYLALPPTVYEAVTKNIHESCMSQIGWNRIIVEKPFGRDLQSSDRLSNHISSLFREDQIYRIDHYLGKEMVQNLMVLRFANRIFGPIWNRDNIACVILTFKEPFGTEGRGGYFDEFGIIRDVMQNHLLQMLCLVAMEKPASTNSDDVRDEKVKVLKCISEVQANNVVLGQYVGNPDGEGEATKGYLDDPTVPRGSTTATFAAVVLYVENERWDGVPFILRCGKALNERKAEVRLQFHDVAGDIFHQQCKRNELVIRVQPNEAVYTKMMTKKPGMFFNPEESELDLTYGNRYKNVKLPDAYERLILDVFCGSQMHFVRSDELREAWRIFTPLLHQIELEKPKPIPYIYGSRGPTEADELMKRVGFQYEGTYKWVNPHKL

[2] = viability of uninfected HEp-2 cells – cell-based, HTS, cytotoxicity control for RSV inhibitor project, dose response (AID 2410); format: functional; conditions: human respiratory syncytial virus
BJ [3] = experiment: BJ-TERT fibroblast viability loss – cell-based, RAS-independent, luminescence, dose response (AID 1933); format: functional; conditions: Homo sapiens
BJ [4] = experiment: cells; format: functional, cell-based; conditions: Homo sapiens
BJ [5] = experiment: BJ-TERT-LT-ST fibroblast viability loss – cell-based, RAS-independent, luminescence, dose response (AID 1935); format: functional; conditions: Homo sapiens;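 further: BJ fibroblasts immortalized with TERT plus LT and ST oncogenes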
[6] = DRD fibroblast viability loss – cell-based, non-viral oncogenic, luminescence, dose response (AID 1934); format: functional; conditions: Homo sapiens
Vero [7] = experiment: cells; format: functional, cell-based; conditions: Chlorocebus sabaeus
Vero [8] = experiment: cells; format: functional; conditions: Chlorocebus sabaeus
cells [9] = experiment: cells
[10] = molecular target: T1, Polyadenylate-binding protein 1 (Homo sapiens, UniProt P11940); experiment: MLLE binding blockers, Cy5 peptide tracer – biochemical, fluorescence polarization, Cy5-PAM2 peptide, secondary, miRNA deadenylation inhibitor project, dose response (AID 602260); format: functional; conditions: read-out: IC50_Mean
T1 sequence (P11940 whole entry, the tested form may be a part): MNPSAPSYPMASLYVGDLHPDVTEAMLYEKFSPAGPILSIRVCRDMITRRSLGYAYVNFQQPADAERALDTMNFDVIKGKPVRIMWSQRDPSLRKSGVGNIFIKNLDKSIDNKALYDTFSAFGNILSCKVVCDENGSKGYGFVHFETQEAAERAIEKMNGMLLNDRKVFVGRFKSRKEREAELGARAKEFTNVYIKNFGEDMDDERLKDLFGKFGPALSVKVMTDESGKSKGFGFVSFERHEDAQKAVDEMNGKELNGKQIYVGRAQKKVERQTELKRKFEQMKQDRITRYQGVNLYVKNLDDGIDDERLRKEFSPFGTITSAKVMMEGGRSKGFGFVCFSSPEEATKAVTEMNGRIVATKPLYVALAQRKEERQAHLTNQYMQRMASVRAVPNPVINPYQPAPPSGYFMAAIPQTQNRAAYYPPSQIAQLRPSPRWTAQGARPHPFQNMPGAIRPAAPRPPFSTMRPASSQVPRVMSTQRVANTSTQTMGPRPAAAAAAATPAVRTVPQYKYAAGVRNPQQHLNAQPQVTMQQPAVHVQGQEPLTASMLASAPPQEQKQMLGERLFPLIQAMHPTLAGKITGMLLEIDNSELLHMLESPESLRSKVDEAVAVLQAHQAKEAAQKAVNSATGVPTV

[11] = molecular target: T1, Polyadenylate-binding protein 1; experiment: MLLE domain peptide-binding blockers, IC50 – biochemical, fluorescence polarization, FITC-PAM2 peptide, dose response (AID 602259); format: functional; conditions: read-out: IC50_Mean
Genome polyprotein = Genome polyprotein (dengue virus type 2, UniProt P29990); experiment: flavivirus cap methylation enzyme inhibition – biochemical, confirmation dose response, primary screen (AID 588689); format: functional
Genome polyprotein, sequence (P29990 2492-3391 limits assumed): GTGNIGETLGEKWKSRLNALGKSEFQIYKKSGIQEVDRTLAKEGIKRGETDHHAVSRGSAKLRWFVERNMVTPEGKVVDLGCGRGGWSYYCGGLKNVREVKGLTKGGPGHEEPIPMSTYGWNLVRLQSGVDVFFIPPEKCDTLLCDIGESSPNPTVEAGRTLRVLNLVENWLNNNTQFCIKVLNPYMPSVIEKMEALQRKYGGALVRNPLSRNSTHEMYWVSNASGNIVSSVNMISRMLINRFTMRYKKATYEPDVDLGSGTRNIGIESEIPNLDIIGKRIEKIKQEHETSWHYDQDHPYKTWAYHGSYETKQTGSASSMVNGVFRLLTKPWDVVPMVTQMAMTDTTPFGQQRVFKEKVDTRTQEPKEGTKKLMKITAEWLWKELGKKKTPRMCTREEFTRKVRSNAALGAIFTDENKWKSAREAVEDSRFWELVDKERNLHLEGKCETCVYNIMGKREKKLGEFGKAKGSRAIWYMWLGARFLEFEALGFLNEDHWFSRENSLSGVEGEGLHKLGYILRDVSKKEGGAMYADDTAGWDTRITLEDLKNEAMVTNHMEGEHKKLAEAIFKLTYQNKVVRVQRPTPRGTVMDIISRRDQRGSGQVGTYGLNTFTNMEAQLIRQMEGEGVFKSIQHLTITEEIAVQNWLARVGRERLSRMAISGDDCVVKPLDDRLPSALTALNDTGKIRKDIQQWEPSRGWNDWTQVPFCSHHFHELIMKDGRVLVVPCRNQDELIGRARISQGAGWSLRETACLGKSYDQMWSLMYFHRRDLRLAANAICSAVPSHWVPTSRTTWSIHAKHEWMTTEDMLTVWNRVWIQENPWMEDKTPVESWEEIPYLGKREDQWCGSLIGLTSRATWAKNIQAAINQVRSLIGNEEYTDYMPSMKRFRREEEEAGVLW

[12] = blockers of HIV-1 envelope-mediated cell-cell fusion – cherry-pick, dose response (AID 652057); format: functional, cell-based
[13] = viability loss in CEM21 cells – cell-based, CellTiter-Glo luminescence, cherry-picked, cytotoxicity control for viral fusion inhibitor project, dose response (AID 652042); format: functional;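 further: potency for signal decrease meaning cytotoxicity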
[14] = blockers of HIV-1 ZM109 envelope-driven cell-cell fusion – HeLa effector, CEM target cells, luciferase, cherry-pick, dose response (AID 652058); format: functional, cell-based;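 further: luciferase signal from HIV-1 Env mediated cell-cell fusion of effector and target cells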
[15] = off-target signal loss in HeLa-CEM21 co-culture – HeLa F-luc CTL cells, cherry-picked, counter-screen for HIV-1 Env fusion inhibitor project, dose response (AID 652040); format: functional, cell-based;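 further: potency for signal decrease marking cytotoxic or nonspecific inhibition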
Escherichia coli = experiment: microbe, parasite or virus in culture
P388/ADR = experiment: cells; format: functional; conditions: Mus musculus
SN12K1 = experiment: cells; format: functional; conditions: Homo sapiens
P388 = experiment: cells; format: functional; conditions: Mus musculus
[16] = reduction of Shn3 3'UTR-driven luciferase in osteoblasts – cell-based, Clone20 osteoblasts, firefly luciferase, cherry-picked, dose response (AID 624132); format: functional;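 further: firefly luciferase luminescence from reporter carrying the Shn3 3'UTR in osteoblasts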
[17] = loss of viability in HepG2 cells – cell-based, CellTiter-Glo, cherry-picked, cytotoxicity control for Shn3 inhibitor project, dose response (AID 624134); format: functional
[18] = non-specific 3'UTR reporter inhibition in Clone20-Shn3RL – cell-based, Renilla luciferase, cherry-picked, counter-screen for Shn3 inhibitor project, dose response (AID 624133); format: functional
[19] = A549 cell cytotoxicity, dose response, cytotoxicity control, plate reader, cherry-pick, antagonist series (AID 743412); format: functional, cell-based
[20] = toxicity toward HepG2 liver cells – cell-based, plate reader, cherry-pick, antagonist series, cytotoxicity control, dose response (AID 743416); format: functional
[21] = blockers of bursicon-stimulated LGR2 cAMP reporter – cell-based, HEK293, CRE-luciferase reporter, cherry pick, set 2, dose response (AID 743343); format: functional;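 further: transfected cells were stimulated with diluted bursicon conditioned medium after compound addition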
[22] = blockade of melanocortin 4 receptor signaling – cell-based, plate reader, cherry pick, counter-screen for LGR2 antagonist project, dose response (AID 743444); format: functional;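 further: transfected HEK 293 cells stimulated with alpha-MSH peptide; potency of inhibitors of the alpha-MSH evoked signal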
[23] = viability loss in HEK293 cells – cell-based, plate reader, cherry-picked samples, cytotoxicity control, dose response (AID 743446); format: functional
Paired box protein Pax-8 = Paired box protein Pax-8 (Homo sapiens, UniProt Q06710); experiment: PAX8 transcriptional activity inhibition in RMG-I – RMG-I cells, luciferase, cherry-pick, dose response (AID 687027); format: functional, cell-based;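 further: luciferase reporter driven by Pax8 target thyroperoxidase promoter measured by SteadyGlo luminescence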
Paired box protein Pax-8, sequence (Q06710 whole entry): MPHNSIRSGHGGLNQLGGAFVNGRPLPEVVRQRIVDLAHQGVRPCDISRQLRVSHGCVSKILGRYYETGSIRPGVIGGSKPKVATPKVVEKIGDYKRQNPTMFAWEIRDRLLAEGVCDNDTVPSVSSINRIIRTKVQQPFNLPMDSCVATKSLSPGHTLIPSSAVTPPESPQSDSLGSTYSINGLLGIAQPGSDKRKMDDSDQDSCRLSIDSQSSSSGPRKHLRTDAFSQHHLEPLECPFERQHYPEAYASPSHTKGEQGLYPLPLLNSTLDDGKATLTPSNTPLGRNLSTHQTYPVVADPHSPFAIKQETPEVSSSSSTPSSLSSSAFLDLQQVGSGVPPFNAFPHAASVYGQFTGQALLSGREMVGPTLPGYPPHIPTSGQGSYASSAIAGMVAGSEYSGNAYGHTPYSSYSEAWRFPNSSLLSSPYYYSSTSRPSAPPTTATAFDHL

[24] = OVCAR8 cell viability loss – plate reader, dry powder samples, PAX8 project, dose response (AID 743197); format: functional, cell-based; conditions: OVCAR-8
[25] = HIV-1 AD8 envelope cell-cell fusion blockers – cherry-pick, dose response (AID 652062); format: functional, cell-based;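 further: luciferase signal from cell-cell fusion driven by HIV-1 clade B AD8 Env; potency is for inhibitors of fusion seen as a drop in luminescence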
cells [26] = format: functional

## Cc1ccc(C(=O)NCC(=O)NCC(=O)OCC(=O)c2ccc([N+](=O)[O-])cc2)cc1
[1]
  IC50: > 80 µM (inactive)

## Cc1ccc(-n2c(SCC(=O)Nc3ncc(Cl)cc3Cl)nc3ccccc32)cc1
[2]
  CC50: 2.33 µM (active)
BJ [3]
  EC50: 115 µM (active)
BJ [4]
  EC50: 64.6 µM (active)
BJ [5]
  EC50: > 150 µM (not active)
[6]
  EC50: 30.6 µM (inconclusive)
Vero [7]
  IC50: 0.72 µM (active)
Vero [8]
  CC50: > 25 µM (active)
Cells [9]
  IC50: 1.1 µM (active)

## CC1CN(C(=S)c2cccc([N+](=O)[O-])c2)CC(C)O1 (stereo not drawn)
[10]
  IC50: > 66 µM (inactive)
[11]
  IC50: > 66 µM (inactive)

## Cc1cc(O)c(C(C)C)cc1N=Cc1ccccc1[N+](=O)[O-]
[1]
  IC50: > 80 µM (inactive)
Genome polyprotein
  IC50: > 100 µM (active)

## NC(Cc1ccc(F)cc1)c1csc(Nc2ccc(C(F)(F)F)cn2)n1 (stereo not drawn)
[12]
  AC50: 10 µM (active)
[13]
  AC50: 9.3 µM (active)
[14]
  AC50: 7.7 µM (active)
[15]
  AC50: 9.07 µM (active)

## COc1cc(SC)ccc1C(=O)OCC(=O)NC(=O)NC(C)C
Escherichia coli
  AC50: 28.2 µM (active)

## CC1C(=O)OC2CC[N+]3(CC(=O)c4ccc(Br)cc4)CC=C(COC(=O)C(C)(O)C1(C)O)C23 (stereo not drawn)
P388/ADR
  GI50: > 375 µM (inactive)
SN12K1
  GI50: > 375 µM (inactive)
P388
  GI50: > 174 µM (inactive)

## Nc1nc(=O)[nH][nH]1
P388/ADR
  GI50: > 100 µM (inactive)
SN12K1
  GI50: > 100 µM (inactive)
P388
  GI50: > 100 µM (inactive)

## N[C@H](C(=O)O)[C@H]1ON=C(Cl)[C@@H]1O
P388/ADR
  GI50: 2.23 µM (inactive)
SN12K1
  GI50: 1.07 µM (active)
P388
  GI50: 2.17 µM (inactive)

## COc1cccc(CN(C)C(=O)c2cccc(S(=O)(=O)N3CCN(c4ccccc4)CC3)c2)c1
[16]
  AC50: 64.1 µM (active)
[17]
  AC50: > 70 µM (inactive)
[18]
  AC50: 12.2 µM (active)

## O=C1NC(=O)C2(CCc3ccc(N(CCCl)CCCl)cc32)N1 (stereo not drawn)
P388/ADR
  GI50: 2.1 µM (inactive)
SN12K1
  GI50: 15 µM (inactive)
P388
  GI50: 1.35 µM (inactive)

## CSCCC(c1nnnn1-c1c(C)cccc1C)N1CCC(n2c(O)nc3ccccc32)CC1 (stereo not drawn)
[19]
  AC50: 18.3 µM (active)
[20]
  AC50: 36.5 µM (active)
[21]
  AC50: 16.5 µM (active)
[22]
  AC50: 20.5 µM (active)
[23]
  AC50: 22.4 µM (active)

## CCCNC(=O)Nc1ccc2c(c1)OC[C@H](C)N(Cc1ccc(-c3ccccn3)cc1)C[C@@H](C)[C@@H](OC)CN(C)C2=O
Paired box protein Pax-8
  AC50: 32.9 µM (active)
[24]
  AC50: > 70 µM (inactive)

## CCOC1=C2[C@H](c3ccccc3)N(S(=O)(=O)c3ccc(C)cc3)[C@H](C(C)C)[C@H]2C(C#N)(C#N)C(C#N)(C#N)C1
[12]
  AC50: 0.734 µM (active)
[13]
  AC50: 6.07 µM (active)
[14]
  AC50: 2.05 µM (active)
[15]
  AC50: 1.7 µM (active)
[25]
  AC50: 3.08 µM (active)

## CC1C(O)[C@@]2(OC[C@@]34C(=O)CC5(O)[C@H](CCC6Cc7nc8c(nc7C[C@]65C)CC5CC[C@@H]6C7=C[C@H]9O[C@@]%10(O[C@@](C)(CO)C[C@@H]%10O)C(C)[C@@]9(O)[C@]7(C)[C@@H](O)CC6[C@]5(C)C8)C3=CC[C@H]4C2C)OC1(C)C (stereo partly drawn)
P388/ADR
  GI50: 0.00203 µM (active)
SN12K1
  GI50: > 3.55 µM (inactive)
P388
  GI50: < 0.000355 µM (active)

## Nc1ccn(C2OC(CO)C(O)C2F)c(=O)n1 (stereo not drawn)
[12]
  AC50: 16.3 µM (active)
[13]
  AC50: 33.2 µM (active)
[14]
  AC50: 6.52 µM (active)
[15]
  AC50: > 70 µM (inactive)
[25]
  AC50: 2.98 µM (active)

## CC(=O)N1CCN(c2cc3c(cc2F)c(=O)c(C(=O)O)cn3C2CC2)CC1
Cells [26]
  IC50: 2.11 µM (active)
Escherichia coli
  AC50: 1.06 µM (active)

## COC1=CC(=O)N(C(=O)C(OC(=O)C2CCCN2C(=O)C2CCCN2C(=O)C(C(C)C)N(C)C(=O)C(NC(=O)C(C(C)C)N(C)C)C(C)C)C(C)C)C1Cc1ccccc1 (stereo not drawn) (ξNMe2Val-V[NMeV]PP-X18; configuration not given here)
P388/ADR
  GI50: 0.00748 µM (active)
SN12K1
  GI50: 0.0004 µM (active)
P388
  GI50: 0.0004 µM (active)
